The values that follow come from patent US7772245B2, “Inhibitors of histone deacetylase” (Miikana Therapeutics, Inc., priority 2005, dated 2010).

One test has as its system HDAC. Nature of the test: In vitro fluorescent histone deacetylase assay (Biomol HDAC fluorescent activity kit, HeLa cell nuclear extract). It counts as biochemical. Particulars: 100 μM compound; HeLa cell nuclear extract as source of HDAC activity; 50 μM substrate, 10 min at room temperature. The protocol:
Histone deacetylase (HDAC) activity assays were performed using the HDAC fluorescent activity assay/drug discovery kit (Biomol Research Laboratories, Plymouth Meeting, Pa.) essentially according to the manufacturer's instructions. The included HeLa cell nuclear extract, which contains a mosaic of HDAC enzymes and other nuclear factors, was used as the source of HDAC activity. The final substrate concentration in the assay mixture was 50 μM. The reaction was allowed to proceed for 10 min at room temperature before stopping the reaction. Test compounds were prepared as 20 mM stock solutions in DMSO (Molecular Biology grade, Sigma-Aldrich Co., St. Louis, Mo.) and stored at −70° C. Serial dilutions of test compounds were prepared in assay buffer immediately prior to testing. DMSO was determined in a separate trial to have no significant effect on the activity of this assay at concentrations up to 5%; the final DMSO concentration in the wells was no more than 2% and therefore DMSO effects were safely neglected. Assays were performed in white polystyrene 96-well half-area assay plates (Corning, Corning, N.Y.) and measured on a Wallace 1420 fluorescent plate reader (Wallac Oy, Turku, Finland) with an excitation wavelength of 355 nm, an emission wavelength of 460 nm, and a 1 sec signal averaging time.

For a further test, the system named is HCT116 cells. Nature of the test: Whole cell cytotoxicity assay: Sulforhodamine B. The settings on record: Homo sapiens, HCT-116; 100 μM compound; 48 hours incubation with drug; Sulforhodamine B staining; read-out: % Inhibition of HCT116 cell growth @ 100 μM. Type of test: cell-based. The protocol:
[The source words this procedure for another cell line and reports this cell line under the same test.] The following procedure can be found on the Developmental Therapeutics Program NCl/NIH web site at http://dtp.nci.nih.gov/brancehes/btb/ivclsp.html. • 1. Human tumor cell lines of HT29, A549 and MCF7 are grown in DMEM containing 10% fetal bovine serum and 2 mM L-glutamine. Cells are plated in a 96 well plate at a density of 5000 cells per well in 100 μL of growth medium and incubated at 37° C., 5% CO2, for 24 hours prior to the addition of experimental compounds. • 2. Experimental drugs are solubilized in DMSO for a final concentration of 20 mM immediately prior to use. Drugs are further diluted in growth media for a total of nine drug concentrations and a growth control. At the 24 hour time point, one plate of cells is fixed in situ with TCA as a measurement of the cell population at time zero, or the time of drug addition. • 3. The plates are further incubated with drug for an additional 48 hours. • 4. The cells are fixed in situ by gently aspirating off the culture media and then adding 50 μL of ice cold 10% TCA per well and incubated at 4° C. for 60 minutes. The plates are washed with tap water five times and allowed to air dry for 5 minute. • 5. 50 μL of a 0.4% (w/v) Sulforhodamine B solution in 1% (v/v) acetic acid is added per well and incubated for 30 minutes at room temperature. • 6. Following staining, plates are washed five times with 1% acetic acid to remove any unbound dye and then allowed to air dry for 5 minutes. • 7. Stain is solubilized with 100 μL of 10 mM Tris pH 10.5 per well and placed on an orbital rotator for 5 minutes. • 8. Absorbance is read at 570 nm.

As a reminder, the inhibition is the percentage by which the read-out fell short of the control. With `O=C(/C=C/c1ccc(CN2CCc3c([nH]c4ccccc34)C2)s1)NO` [Example 3, (2E)-N-hydroxy-3-[5-(1,3,4,9-tetrahydro-2H-b-carbolin-2-ylmethyl)thien-2-yl]acrylamide], the “% Inhibition of HDAC @ 100 μM” value in the test on HDAC stood at 97.9%. In the test with HCT116 cells, the inhibition at 100 µM turned out to be 98.3%.
In the case of `O=C(NO)c1ccc(N2CCc3c([nH]c4ccccc34)C2)nc1` [Example 4, N-hydroxy-6-(1,3,4,9-tetrahydro-2H-b-carbolin-2-yl)nicotinamide], the inhibition at 100 µM in the test with HCT116 cells was determined as 98.5%.
As for `COc1cc2c(cc1OC)CN(c1ccc(C(=O)NO)cn1)CC2` [Example 5, 6-(6,7-dimethoxy-3,4-dihydroisoquinolin-2(1H)-yl)-N-hydroxynicotinamide], the “% Inhibition of HDAC @ 100 μM” value in the test with HDAC worked out at 99.7%. Moreover, in the test with HCT116 cells, the inhibition at 100 µM came out at 99.9%.
Take `O=C(NO)c1cnc(N2CCc3c([nH]c4ccccc34)C2)nc1` [Example 9, N-hydroxy-2-(1,3,4,9-tetrahydro-2H-b-carbolin-2-yl)pyrimidine-5-carboxamide]: the “% Inhibition of HDAC @ 100 μM” value in the test with HDAC is given as 99.9%. In addition, the inhibition at 100 µM with HCT116 cells amounted to 99.3%.
With `COc1ccc2[nH]c3c(c2c1)CCN(c1ncc(C(=O)NO)cn1)C3` [Example 10, N-hydroxy-2-(6-methoxy-1,3,4,9-tetrahydro-2H-b-carbolin-2-yl)pyrimidine-5-carboxamide], in the test on HDAC, the “% Inhibition of HDAC @ 100 μM” value is 99.5%. In addition, the inhibition at 100 µM in the test with HCT116 cells was determined as 98.4%.
On to `COc1cc2c(cc1OC)CN(c1ncc(C(=O)NO)cn1)CC2` [Example 11, 2-(6,7-dimethoxy-3,4-dihydroisoquinolin-2(1H)-yl)-N-hydroxypyrimidine-5-carboxamide], for which the “% Inhibition of HDAC @ 100 μM” value in the test with HDAC was found to be 99.8%. In the test with HCT116 cells, the inhibition at 100 µM was found to be 99%.
Consider `O=C(NO)c1cnc(N2CCc3[nH]c4ccccc4c3C2)nc1` [Example 12, N-hydroxy-2-(1,3,4,5-tetrahydro-2H-pyrido[4,3-b]indol-2-yl)pyrimidine-5-carboxamide], for which, in the test on HDAC, the “% Inhibition of HDAC @ 100 μM” value is given as 99.9%. Further, the inhibition at 100 µM in the test with HCT116 cells amounted to 98.7%.
Turning to `Cc1ccc2[nH]c3c(c2c1)CN(c1ncc(C(=O)NO)cn1)CC3` [Example 13, N-hydroxy-2-(8-methyl-1,3,4,5-tetrahydro-2H-pyrido[4,3-b]indol-2-yl)pyrimidine-5-carboxamide], in the test with HDAC, the “% Inhibition of HDAC @ 100 μM” value was found to be 99.9%. For the same compound, the inhibition at 100 µM with HCT116 cells amounted to 99.1%.
In the case of `O=C(NO)c1cnc(N2CCc3[nH]c4ccc(Cl)cc4c3C2)nc1` [Example 14, 2-(8-chloro-1,3,4,5-tetrahydro-2H-pyrido[4,3-b]indol-2-yl)-N-hydroxypyrimidine-5-carboxamide], the “% Inhibition of HDAC @ 100 μM” value in the test with HDAC amounted to 99.9%. For the same compound, the inhibition at 100 µM in the test with HCT116 cells was determined as 98.1%.
Taken in the same sequence, the figures for `O=C(NO)c1cnc(N2CCc3[nH]c4ccc(Br)cc4c3C2)nc1` [Example 15, 2-(8-bromo-1,3,4,5-tetrahydro-2H-pyrido[4,3-b]indol-2-yl)-N-hydroxypyrimidine-5-carboxamide] were 99.8% and 99%.
Regarding `O=C(NO)c1cnc(N2CCc3[nH]c4ccc(OC(F)(F)F)cc4c3C2)nc1` [Example 16, N-hydroxy-2-[8-(trifluoromethoxy)-1,3,4,5-tetrahydro-2H-pyrido[4,3-b]indol-2-yl]pyrimidine-5-carboxamide], the “% Inhibition of HDAC @ 100 μM” value in the test with HDAC is reported as 98.9%. Further, in the test with HCT116 cells, the inhibition at 100 µM came out at 99%.
As to `O=C(NO)c1ccc(N2CCc3c([nH]c4ccccc34)C2)cc1` [Example 18, N-hydroxy-4-(1,3,4,9-tetrahydro-2H-b-carbolin-2-yl)benzamide], the inhibition at 100 µM in the test on HCT116 cells is 98.5%.
With `O=C(NO)c1cnc(N2CCc3c([nH]c4ccccc34)C2)s1` [Example 19, N-hydroxy-2-(1,3,4,9-tetrahydro-2H-b-carbolin-2-yl)-1,3-thiazole-5-carboxamide], the “% Inhibition of HDAC @ 100 μM” value with HDAC is listed as 97.6%. Besides, the inhibition at 100 µM in the test on HCT116 cells amounted to 97.2%.
`O=C(/C=C/c1cnc(N2CCc3c([nH]c4ccccc34)C2)nc1)NO` [Example 20, (2E)-N-hydroxy-3-[2-(1,3,4,9-tetrahydro-2H-b-carbolin-2-yl)pyrimidin-5-yl]acrylamide]: the “% Inhibition of HDAC @ 100 μM” value in the test on HDAC turned out to be 99.6%. In addition, the inhibition at 100 µM with HCT116 cells came out at 98.2%.
Taken in the same sequence, the figures for `O=C(CCc1cnc(N2CCc3c([nH]c4ccccc34)C2)nc1)NO` [Example 21, N-hydroxy-3-[2-(1,3,4,9-tetrahydro-2H-b-carbolin-2-yl)pyrimidin-5-yl]propanamide] were 98.5% and 94%.
Take `O=C(NO)c1cnc(N2CCc3[nH]c4ccc(-c5cccc(C(=O)N6CCCC6)c5)cc4c3C2)nc1` [Example 42, N-hydroxy-2-{8-[3-(pyrrolidin-1-ylcarbonyl)phenyl]-1,3,4,5-tetrahydro-2H-pyrido[4,3-b]indol-2-yl}pyrimidine-5-carboxamide]: the inhibition at 100 µM in the test on HCT116 cells stood at 88%.
Still for that read-out and setting: under `O=C(NO)c1cnc(N2CCc3[nH]c4ccc(-c5cccnc5)cc4c3C2)nc1` [Example 47, N-hydroxy-2-{8-(pyridin-3-yl)-1,3,4,5-tetrahydro-2H-pyrido[4,3-b]indol-2-yl}pyrimidine-5-carboxamide] stands 98.1%.
For the compound `CC(=O)Nc1ccc2[nH]c3c(c2c1)CN(c1ncc(C(=O)NO)cn1)CC3` [Example 77, N-hydroxy-2-(8-(N-acetamido)-1,3,4,5-tetrahydro-2H-pyrido[4,3-b]indol-2-yl)pyrimidine-5-carboxamide], the inhibition at 100 µM in the test with HCT116 cells came to 98.1%.
As to `CS(=O)(=O)Nc1cccc(-c2ccc3[nH]c4c(c3c2)CN(c2ncc(C(=O)NO)cn2)CC4)c1` [Example 88, N-hydroxy-2-{8-[3-(N-methylsulfonamido)phenyl]-1,3,4,5-tetrahydro-2H-pyrido[4,3-b]indol-2-yl}pyrimidine-5-carboxamide], in the test on HCT116 cells, the inhibition at 100 µM is 98.4%.
As for `CN(C)Cc1cccc(-c2ccc3[nH]c4c(c3c2)CN(c2ncc(C(=O)NO)cn2)CC4)c1` [Example 92, N-hydroxy-2-{8-[3-(N,N-dimethylaminomethyl)phenyl]-1,3,4,5-tetrahydro-2H-pyrido[4,3-b]indol-2-yl}pyrimidine-5-carboxamide], in the test on HCT116 cells, the inhibition at 100 µM was 98.9%.
In the case of `O=C(NO)c1cnc(N2CCc3[nH]c4ccc(-c5ccc(CN6CCCC6)cc5)cc4c3C2)nc1` [Example 103, N-hydroxy-2-{8-[4-(pyrrolidin-1-ylmethyl)phenyl]-1,3,4,5-tetrahydro-2H-pyrido[4,3-b]indol-2-yl}pyrimidine-5-carboxamide], the inhibition at 100 µM in the test on HCT116 cells amounted to 98.9%.
For `O=C(NO)c1cnc(N2CCc3[nH]c4ccc(-c5ccc(CN6CCSCC6)cc5)cc4c3C2)nc1` [Example 105, N-hydroxy-2-{8-[4-(thiomorpholin-4-ylmethyl)phenyl]-1,3,4,5-tetrahydro-2H-pyrido[4,3-b]indol-2-yl}pyrimidine-5-carboxamide], the inhibition at 100 µM with HCT116 cells worked out at 97%.
With `O=C(NO)c1cnc(N2CCc3[nH]c4ccc(F)cc4c3C2)nc1` [Example 111, N-hydroxy-2-(8-fluoro-1,3,4,5-tetrahydro-2H-pyrido[4,3-b]indol-2-yl)pyrimidine-5-carboxamide], the inhibition at 100 µM in the test on HCT116 cells came to 97.7%.
On to `O=C(NO)c1cnc(N2CCc3[nH]c4ccccc4c3CC2)nc1` [Example 114, N-hydroxy-2-(1,4,5,6-tetrahydroazepino[4,5-b]indol-3(2H)-1-yl)pyrimidine-5-carboxamide], for which the inhibition at 100 µM in the test on HCT116 cells came to 99.3%.
Take `O=C(NO)c1cnc(N2CCc3[nH]c4ccc(F)cc4c3CC2)nc1` [Example 115, N-hydroxy-2-(9-fluoro-1,4,5,6-tetrahydroazepino[4,5-b]indol-3(2H)-1-yl)pyrimidine-5-carboxamide]: the inhibition at 100 µM in the test with HCT116 cells stood at 98.8%.
Take `O=C(NO)c1cnc(N2CCc3[nH]c4cc(-c5cccc(CN6CCCC6)c5)ccc4c3C2)nc1` [Example 121, N-hydroxy-2-{7-[3-(pyrrolidin-1-ylmethyl)phenyl]-1,3,4,5-tetrahydro-2H-pyrido[4,3-b]indol-2-yl}pyrimidine-5-carboxamide]: the inhibition at 100 µM in the test on HCT116 cells is 97.5%.
